Consider 5 compounds from PMC8705904, “Structural Bases for Hesperetin Derivatives: Inhibition of Protein Tyrosine Phosphatase 1B, Kinetics Mechanism and Molecular Docking Study” (Molecules, 2021).

Assay [1] deals with T1, PTP1B (human recombinant) (Homo sapiens, UniProt P18031).
T1 construct: purchased Biomol International LP (Plymouth Meeting, PA, USA)
T1 sequence (P18031 1-435): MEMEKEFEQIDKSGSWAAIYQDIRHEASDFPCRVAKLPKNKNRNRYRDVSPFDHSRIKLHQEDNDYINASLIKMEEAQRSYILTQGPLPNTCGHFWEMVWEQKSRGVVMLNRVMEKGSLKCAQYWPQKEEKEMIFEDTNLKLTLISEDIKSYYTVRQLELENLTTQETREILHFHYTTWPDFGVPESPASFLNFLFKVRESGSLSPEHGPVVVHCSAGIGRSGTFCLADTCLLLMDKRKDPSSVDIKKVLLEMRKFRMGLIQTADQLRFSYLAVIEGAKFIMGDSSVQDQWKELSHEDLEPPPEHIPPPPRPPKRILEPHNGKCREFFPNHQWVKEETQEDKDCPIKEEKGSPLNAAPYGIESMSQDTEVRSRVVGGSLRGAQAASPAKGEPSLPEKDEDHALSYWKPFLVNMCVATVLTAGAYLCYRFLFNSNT
The assay is described as follows: PTP1B inhibitory assay using pNPP. It is filed as biochemical. Particulars: for IC50: mean ± S.E.M of triplicate experiments, substrate pNPP. The method, then:
(§1) The PTP1B inhibitory activity was evaluated using pNPP according to the work of Jung et al.. In each well of a 96-well plate (each with a final volume of 100 µL), 40 µL of PTP1B enzyme [0.5 units diluted with a PTP1B reaction buffer containing 50 mM citrate (pH 6.0), 0.1 M NaCl, 1 mM EDTA, and 1 mM DTT] was added with or without the sample dissolved in 10% DMSO. The plate was preincubated at 37 °C for 10 min and then 50 µL of 2 mM pNPP in the PTP1B reaction buffer was added. Following incubation at 37 °C for 20 min, the reaction was terminated by the addition of 10 M NaOH. […] The inhibition percentage was obtained using the following equation: % inhibition = (Ac − As)/Ac × 100, where Ac is the absorbance of the control and As is the absorbance of the sample.

The target of assay [2] is T1, PTP1B (human recombinant). The assay is described as follows: Kinetic analysis of PTP1B inhibition (Lineweaver–Burk and Dixon plots). It is filed as biochemical. Particulars: for Ki: determined by Dixon plots; for PTP1B type of inhibition: determined by Lineweaver–Burk plots, pNPP 0.5, 1.0 and 2.0 mM. How it is done: as §1
To determine the kinetic mechanism, two kinetic methods using Lineweaver–Burk and Dixon plots were complementarily used. […] The enzymatic inhibitions of the test flavonoids were evaluated by monitoring the effects of different concentrations of the […] in the Dixon plots (single reciprocal plot). The enzymatic procedure consisted of the same, aforementioned, PTP1B assay method. The inhibition constants (Ki) were determined by interpretation of the Dixon plots, where the value of the x-axis implies -Ki.

Usually IC50 stands for the point on the concentration scale where inhibition reaches its midpoint. By Ki is commonly meant a measure of affinity in units of concentration, obtained from inhibition or displacement.

Turning to `COc1ccc(C2CC(=O)c3c(cc(O)cc3OC3OC(CO)C(O)C(O)C3O)O2)cc1O` (stereo not drawn) [Hesperetin 5-O-glucoside], the IC50 in assay [1] came to 37.14 ± 0.07 µM. In addition, in assay [2], the Ki came out at 81.6 µM and the “PTP1B type of inhibition” value is recorded as “Mixed”. The “PTP1B type of inhibition” value in assay [2] (listed as hesperetin 5-O-glucoside) was “mixed-type inhibition”.

On to `COc1ccc(C2CC(=O)c3c(O)cc(OC4OC(CO)C(O)C(O)C4O)cc3O2)cc1O` (stereo not drawn) [Hesperetin 7-O-glucoside], for which, in assay [1], the “PTP1B inhibitory activity (in words)” value was “inactive” and the IC50 was over 300 µM.

`COc1ccc([C@@H]2CC(=O)c3c(O)cc(O)cc3O2)cc1O` [Hesperetin]: the IC50 in assay [1] was determined as 288 ± 7.98 µM. In addition, in assay [2], the Ki was 295 µM and the “PTP1B type of inhibition” value was “Uncompetitive”. Moreover, in assay [2] (listed as hesperetin), the “PTP1B type of inhibition” value is recorded as “uncompetitive-type inhibition”.

For the compound `COc1ccc(C2CC(=O)c3c(O)cc(OC4OC(COC5OC(C)C(O)C(O)C5O)C(O)C(O)C4O)cc3O2)cc1O` (stereo not drawn) [Hesperidin, hesperetin 7-O-rutinoside], the IC50 in assay [1] came to 58.1 ± 4.18 µM. Moreover, in assay [2], the Ki was 50 µM and the “PTP1B type of inhibition” value was “Mixed”. In addition, the “PTP1B type of inhibition” value in assay [2] (listed as hesperidin) is on record as “mixed-type inhibition”.

As for `COc1ccc(C2CC(=O)c3c(O)cc(OC4OC(CO)C(O)C(O)C4OC4OC(C)C(O)C(O)C4O)cc3O2)cc1O` (stereo not drawn) [Neohesperidin, hesperetin 7-O-neohesperidoside], the IC50 in assay [1] amounted to 144 ± 3.04 µM. The Ki in assay [2] was 154 µM. The “PTP1B type of inhibition” value was “Uncompetitive” in assay [2] and “uncompetitive-type inhibition” in assay [2] (listed as neohesperidin).
